We go through six molecules from patent publication US20260158094A1, “COMPOSITION FOR PREVENTING, IMPROVING OR TREATING SKELETAL MUSCLE ATROPHY OR SARCOPENIA COMPRISING EXTRACT OR ISOLATED COMPOUND FROM STELLARIA DICHOTOMA AS ACTIVE INGREDIENT” (INDUSTRY-UNIVERSITY COOPERATION FOUNDATION HANYANG …, priority 2023, published 2026).

“And” between values parts separate entries of the source, which are not always exact repeats. Identical values can stand only once. Marks after values point to notes of the source that are not given here.

For test [1], the system named is C2C12 myotubes. Put plainly: Fusion index of MHC-positive multinucleated C2C12 myotubes after dexamethasone (MHC immunofluorescence). The class given is cell-based, mouse. The protocol: The experiment was conducted similarly to Example 3-2. However, Dichotomine B was administered at concentrations of 10 μM and 30 μM.
After completion of treatment, the culture media from each group was removed, and cells were washed twice with phosphate-buffered saline (PBS), fixed with 4% paraformaldehyde for 15 minutes, and washed three times with PBS. The cells were then permeabilized with 0.1% Triton X-100 for 10 minutes, washed twice with PBS, and blocked with 3% horse serum solution for 2 hours. Mouse anti-MHC antibody was diluted 1:100 in 3% BSA and incubated overnight at 4° C. The cells were washed three times with 0.1% PBST. Goat anti-mouse IgG-FITC secondary antibody (Thermo Fisher Scientific) was diluted 1:500 in 3% BSA and reacted for 1 hour at 37° C., followed by three washes with 0.1% PBST. Next, cells were stained with 1 μg/mL Hoechst 33342 solution for 10 minutes at room temperature. Cell imaging was performed using the JuLi™ system. MHC immunofluorescence was visualized in green, and cell nuclei stained with Hoechst 33342 were visualized in blue.
From the results of Section 7-3, randomly selected multinucleated myotubes were analyzed to calculate the fusion index. The number of multinucleated myotubes (i.e., myotubes containing multiple nuclei) was counted and normalized to the total number of cells. The relative number of MHC-positive multinucleated myotubes was determined for each treatment group (see Table 4 and FIG. 13).

Test [2] relates to C2C12 myotubes. Briefly: Dexamethasone-induced atrophy of differentiated C2C12 myotubes, myotube diameter (ImageJ). Particulars: for prevention of dexamethasone-induced reduction in diameter of C2C12 myotubes (in words): dexamethasone-induced atrophy. It is filed as cell-based, mouse.
Method: C2C12 mouse myoblasts used in this experiment were obtained from the American Type Culture Collection (ATCC). The cells were cultured in Dulbecco's Modified Eagle's Medium (DMEM) containing 10% fetal bovine serum (FBS), 100 U/mL penicillin, and 100 μg/mL streptomycin under conditions of 5% CO2 at 37° C. The C2C12 cells were seeded into 12-well plates and allowed to proliferate until reaching a confluence of 85-90%.
For induction of differentiation, the culture medium was replaced with a differentiation medium composed of DMEM supplemented with 2% horse serum, 100 U/mL penicillin, and 100 μg/mL streptomycin. The medium was replaced every two days, and differentiation was carried out for a total of 6 days.
The diameter of the C2C12 myotubes was measured using the ImageJ cell processing software. For each experimental group, the diameters of 50 individual myotubes were measured to calculate the average and standard error.
For test [3], the system named is C2C12 myotubes. Put plainly: In vitro starvation model (serum-free/low-glucose medium), C2C12 myotube diameter and MHC-stained area. The class given is cell-based, mouse. The protocol:
(§1) Culturing differentiated C2C12 myotubes in serum-free/low-glucose medium inhibits muscle protein synthesis and induces muscle atrophy through increased protein degradation. In this example, C2C12 myotubes differentiated as in Section 8-1 were cultured in serum-free/low-glucose medium to induce atrophy, and the cells were then treated with Dichotomine B under the following specific experimental conditions: • 1. Control group: Differentiated C2C12 myotubes were maintained in normal differentiation medium for 48 hours. • 2. Negative control group: Differentiated C2C12 myotubes were cultured in serum-free/low-glucose medium for 48 hours. • 3 Dichotomine B treatment groups: In the same condition as the negative control group, Dichotomine B was additionally administered at concentrations of 1 μM or 10 μM for 48 hours.
This procedure was conducted in the same manner as described in Section 7-3.
The diameter and staining area of the myotubes were measured as described in Example 3-3. The mean and standard errors were calculated, and the results were organized into Table 6. Each experiment was performed in triplicate.

In test [4] the test system is MHC, Atrogin-1 and MuRF-1 in C2C12 myotubes. Put plainly: Western blotting of dexamethasone-treated C2C12 myotubes. The class given is cell-based, mouse. The following applies: dexamethasone model, western blot. The protocol: C2C12 cells were seeded in a 6-well plate at a density of 1×10^5 cells per well. After differentiation was complete, each group was treated with dexamethasone and the test sample according to the respective experimental condition.
Cells were lysed using a lysis buffer containing LIPA buffer, protease inhibitors, and phosphatase inhibitors. A volume of 200 μL of the prepared lysis buffer was added per well, and the cells were collected using a cell scraper. The lysates were centrifuged at 13,000 rpm for 20 minutes, and the supernatants were collected. Protein concentrations were measured using the BCA protein assay method. Equal amounts of protein were separated using 8% SDS-PAGE.
The separated proteins were transferred to a nitrocellulose membrane, followed by blocking with 3% BSA buffer. The membranes were incubated with various primary antibodies (e.g., MHC, FoxO3a, MuRF1, GAPDH), followed by sequential washing, incubation with secondary antibodies, and further washing steps.
Protein expression was detected using enhanced chemiluminescence (ECL), and images were acquired using the ChemiDoc imaging system. Quantification of each protein expression level was performed using ImageJ software.
(Immunoblotting shows a protein as a band on a membrane.)

Test [5] can be described thus: Body weight of mice with 48-hour fasting. The class given is in vivo, C57BL/6 male mice. Particulars: 10 mg/kg; for Body weight (g), End of Sample Administration: administered twice. The protocol: (§2) C57BL/6 male mice (6 weeks old) were obtained from Koatech (Pyeongtaek, Gyeonggi-do, Korea) and acclimated for one week in the Hanyang University ERICA Laboratory Animal Center (Animal Facility Registration No. 445) before use in the experiments. The lighting cycle was set to 12 hours (07:00 to 19:00), and food and water were provided ad libitum. All animal experiments were conducted in compliance with the guidelines and regulations of the Institutional Animal Care and Use Committee (IACUC) of Hanyang University.
(§3) After acquisition of the experimental animals and a 7-day acclimation period, the experiment was conducted.
Solid feed for laboratory animals (Woojung Bio, Hwaseong, Gyeonggi-do, Korea) was provided, and all treatments were administered during a fixed time window (10:00 AM to 12:00 PM).
(§4) Body weight was measured three times in total. For the fasting group, each animal was housed individually during the fasting period. The test sample was administered twice: once at the start of the fasting period, and again 24 hours later. Experimental results are presented as means±standard deviation (SD). Statistical significance among groups was analyzed using ANOVA t-tests via the StatView program.
In the non-fasting group, body weight changes were within the normal range. However, in the fasting group (F group), a statistically significant reduction in body weight was observed after 48 hours of fasting (see Table 7).

Test [6] has as its system C57BL/6 male mice. Briefly: Grip strength of mice after 48-hour fasting (grip strength meter). The class given is in vivo. The following applies: fed mice, 10 mg/kg. The procedure:
as §2, §3, §4
After the completion of the fasting period, grip strength was measured using a grip strength meter.

The test system of test [7] is MHC, FOXO3a, Atrogin-1 and MuRF-1 in C2C12 myotubes. Put plainly: Western blotting in the C2C12 starvation model. The class given is cell-based, mouse. Particulars: western blot. The procedure:
as §1
Western blotting was performed in the same manner as described in Example 7-5 to assess the expression levels of related proteins.

Test [8] deals with C57BL/6 male mice. Put plainly: Muscle tissue weights (TA, EDL, GA, SOL) of mice after 48-hour fasting. The class given is in vivo. Particulars: 10 mg/kg. The protocol:
as §2, §3, §4
To evaluate muscle loss, the weights of dissected muscle tissues-including the tibialis anterior (TA), extensor digitorum longus (EDL), gastrocnemius (GA), and soleus (SOL)-were measured post-mortem and summarized in Table 9.

The mark [9] stands for this setting: starvation (serum free/low glucose medium) 48 hours + compound 1 μM.
[10] abbreviates: starvation (serum free/low glucose medium) 48 hours + compound 10 μM.
Setting [11] is: fed mice (Feed + Dichotomine B).
The mark [12] stands for this setting: Dex 10 μM + compound 30 μM, 24 hours.

Take `C[C@@H]1C[C@H]2[C@@H]3CCC4=CC(=O)C=C[C@]4(C)[C@@]3(F)[C@@H](O)C[C@]2(C)[C@@]1(O)C(=O)CO` [Dex, Dexamethasone, reference compound]: the “fusion index of MHC-positive multinucleated C2C12 myotubes (% of control)” value in test [1] (Dex 10 μM alone) is recorded as 80.0^a % of control. Further, the “C2C12 myotube diameter (% of control)” value in test [2] (dexamethasone 10 μM alone, 24 hours (negative control group)) is 79.9^a % of control. Further, the “decrease of C2C12 myotube diameter compared to the control group” value in test [2] (dexamethasone 10 μM vs differentiation medium alone) is reported as 21.1%.

With `O=C(O)c1cc2c([nH]c3ccccc32)c([C@@H](O)CO)n1` [Dichotomine B], the “C2C12 myotube diameter (% of control)” value in test [3] (setting [9]) was 98.6 + 9.3^b % of control; in test [3] (setting [10]) it was 100.4 ± 10.8^b % of control; in test [2] (Dex 10 μM + compound 10 μM, 24 hours), 97.9^b % of control; in test [2] (setting [12]) it was 98.2^b % of control and 100.6^b % of control. Also, the “MHC positive area (% of control)” value is 93.6 + 7.8^b % of control in test [3] (setting [9]) and 97.1 ± 8.4^b % of control in test [3] (setting [10]). In addition, the MHC expression result in test [4] is listed as “increased in a concentration-dependent manner”. Moreover, the “expression of Atrogin-1 and MuRF-1” value in test [4] is “reduced”. For the same molecule, the “Body weight (g), Start of Sample Administration” value in test [5] (setting [11]) was found to be 21.080 ± 0.370 g; in test [5] (starved mice (Starvation + Dichotomine B)), 22.214 ± 0.701 g. Moreover, the “Body weight (g), End of Sample Administration” value in test [5] (setting [11]) was found to be 21.400 ± 0.339 g; in test [5] (starved mice, 48-hour fasting), 17.743 ± 0.885 g. Further, the “effect on body weight (in words)” value in test [5] (mice, 48-hour fasting) is given as “no significant effect on body weight”. In test [6], the Grip Strength (gf) was found to be 190 ± 11.7 gf. Also, in test [7], the “effect on starvation-induced changes of MHC, FOXO3a, Atrogin-1 and MuRF-1 expression” value was “effectively reversed these effects”. Further, the entries for the “fusion index of MHC-positive multinucleated C2C12 myotubes (% of control)” value in test [1] (Dex 10 μM + compound 10 μM) and in test [1] (Dex 10 μM + compound 30 μM) were 90.3^b % of control and 92.3^b % of control, respectively. Further, the “fusion index of multinucleated C2C12 myotubes (in words)” value in test [1] (dexamethasone model) is “significantly improved the fusion index”. Further, the “Extensor Digitorum Longus (EDL) weight” value in test [8] (fed mice) is listed as 0.012 ± 0.002 g; in test [8] (starved mice, 48-hour fasting) it was 0.014 ± 0.004 g. In addition, the “Gastrocnemius (GA) weight” value was found to be 0.169 ± 0.014 g in test [8] (fed mice) and 0.165 ± 0015 g in test [8] (starved mice, 48-hour fasting). Also, the “Soleus (SOL) weight” value in test [8] (fed mice) came to 0.010 ± 0.001 g. For the same molecule, the “Tibialis Anterior (TA) weight” value in test [8] (fed mice) is 0.058 ± 0.006 g. Further, the “prevention of dexamethasone-induced reduction in diameter of C2C12 myotubes (in words)” value in test [2] is “effectively prevented”.

For the molecule `C[C@H](O)c1nc(C(=O)O)cc2c1[nH]c1ccccc12` [Dichotominee A, Dichotomine A], the “C2C12 myotube diameter (% of control)” value in test [2] (setting [12]) is reported as 87.9 % of control.

In the case of `O=c1cc(-c2ccc(O)cc2)oc2c([C@@H]3O[C@H](CO)[C@@H](O)[C@H](O)[C@H]3O)c(O)c([C@@H]3OC[C@H](O)[C@H](O)[C@H]3O)c(O)c12` [Isoshaftoside], the “C2C12 myotube diameter (% of control)” value in test [2] (setting [12]) is listed as 95.7^c % of control. Moreover, in test [2], the “prevention of dexamethasone-induced reduction in diameter of C2C12 myotubes (in words)” value is reported as “effectively prevented”.

Regarding Glucodichotomine B, in test [2] (setting [12]), the “C2C12 myotube diameter (% of control)” value is given as 102.0^b % of control. Also, the “prevention of dexamethasone-induced reduction in diameter of C2C12 myotubes (in words)” value in test [2] was “effectively prevented”.

Regarding Shaftoside, the “C2C12 myotube diameter (% of control)” value in test [2] (setting [12]) was 92.7^c % of control. Moreover, the “prevention of dexamethasone-induced reduction in diameter of C2C12 myotubes (in words)” value in test [2] is “effectively prevented”.
